Reference: ChEMBL document CHEMBL3885861, “Open TG-GATES”

Species on record: Rattus norvegicus
Experiment: Open TG-GATES - Regimen: Single
Format: toxicity, organism-based, Sprague-Dawley
Set-up: regimen Single, gender Male, age 6 weeks
Details: in vivo, iv, route intravenous injection; for KIDNEY_L / KIDNEY_R / KIDNEY_TOTAL: tissue Kidney; for LIVER: tissue Liver
[1] = 1 mg/kg, 3 h, tissue Blood, dose level Low
[2] = 1 mg/kg, 3 h, tissue Plasma, dose level Low
[3] = 1 mg/kg, 6 h, tissue Blood, dose level Low
[4] = 1 mg/kg, 6 h, tissue Plasma, dose level Low
[5] = 1 mg/kg, 9 h, tissue Blood, dose level Low
[6] = 1 mg/kg, 9 h, tissue Plasma, dose level Low
[7] = 1 mg/kg, 24 h, tissue Blood, dose level Low
[8] = 1 mg/kg, 24 h, tissue Plasma, dose level Low

Molecule `COc1cccc2c1C(=O)c1c(O)c3c(c(O)c1C2=O)C[C@@](O)(C(=O)CO)C[C@@H]3O[C@H]1C[C@H](N)[C@H](O)[C@H](C)O1` [DOXORUBICIN] has a TERMINAL_BW (1 mg/kg, 3 h, dose level Low) of 214.5 g, a Bas [1] of 0% and an Eos [1] of 1%. For the same molecule, the Fbg [1] was 272 mg/dL, the Hb [1] was 13.4 g/dL and the Ht [1] was 38.5%. The Lym [1] was 77%, the MCH [1] was 21.8 pg and the MCHC [1] was 34.8%. For the same molecule, the MCV [1] was 62.7 fL, the Mono [1] was 3% and the PT [1] was 16.4 s. The Plat [1] was 126.6 x10_4/uL, the RBC [1] was 614.2 x10_4/ul and the Ret [1] was 6.6%. For the same molecule, the KIDNEY_L (1 mg/kg, 3 h, dose level Low) was 0.9 g, the KIDNEY_R (1 mg/kg, 3 h, dose level Low) was 0.9 g and the KIDNEY_TOTAL (1 mg/kg, 3 h, dose level Low) was 1.9 g. For the same molecule, the LIVER (1 mg/kg, 3 h, dose level Low) was 9.4 g, the ALP [2] was 1599.2 IU/L and the ALT [2] was 44 IU/L. It also gave an AST [2] of 86.6 IU/L, a CRE [2] of 0.2 mg/dL and a DBIL [2] of 0.002 mg/dL. It also gave a GLC [2] of 185.4 mg/dL, a K [2] of 4.2 meq/L and a Na [2] of 142.4 meq/L. The RALB [2] was 2.9 g/dL, the TBIL [2] was 0.018 mg/dL and the TC [2] was 67.8 mg/dL. For the same molecule, the TG [2] was 81 mg/dL, the TP [2] was 5.1 g/dL and the gamma-GTP [2] was 1.6 IU/L. The TERMINAL_BW (1 mg/kg, 6 h, dose level Low) was 211.5 g, the Bas [3] was 0% and the Eos [3] was 0.4%. The Fbg [3] was 292.8 mg/dL, the Hb [3] was 13 g/dL and the Ht [3] was 38.2%. The Lym [3] was 79.4%, the MCH [3] was 21.9 pg and the MCHC [3] was 34.2%. For the same molecule, the MCV [3] was 64 fL, the Mono [3] was 3.4% and the PT [3] was 15.9 s. The Plat [3] was 117.6 x10_4/uL, the RBC [3] was 598.8 x10_4/ul and the Ret [3] was 7%. For the same molecule, the KIDNEY_L (1 mg/kg, 6 h, dose level Low) was 1 g, the KIDNEY_R (1 mg/kg, 6 h, dose level Low) was 1 g and the KIDNEY_TOTAL (1 mg/kg, 6 h, dose level Low) was 1.9 g. It also gave an LIVER (1 mg/kg, 6 h, dose level Low) of 8.9 g, an ALP [4] of 1586.4 IU/L and an ALT [4] of 43.4 IU/L. The AST [4] was 78.8 IU/L, the CRE [4] was 0.1 mg/dL and the DBIL [4] was 0 mg/dL. The GLC [4] was 172 mg/dL, the K [4] was 4.2 meq/L and the Na [4] was 140.6 meq/L. The RALB [4] was 2.9 g/dL, the TBIL [4] was 0.022 mg/dL and the TC [4] was 71.8 mg/dL. It also gave a TG [4] of 62.6 mg/dL, a TP [4] of 5.2 g/dL and a gamma-GTP [4] of 1.6 IU/L. It also gave a TERMINAL_BW (1 mg/kg, 9 h, dose level Low) of 206.4 g, a Bas [5] of 0% and an Eos [5] of 1%. The Fbg [5] was 286.2 mg/dL, the Ht [5] was 38.8% and the Lym [5] was 74.8%. The MCH [5] was 21.3 pg, the MCHC [5] was 34.3% and the MCV [5] was 62.3 fL. For the same molecule, the Mono [5] was 3%, the Neu [5] was 20.4% and the PT [5] was 16.4 s. The Plat [5] was 115.3 x10_4/uL, the RBC [5] was 624 x10_4/ul and the Ret [5] was 6.7%. For the same molecule, the KIDNEY_L (1 mg/kg, 9 h, dose level Low) was 0.9 g, the KIDNEY_R (1 mg/kg, 9 h, dose level Low) was 0.9 g and the KIDNEY_TOTAL (1 mg/kg, 9 h, dose level Low) was 1.8 g. For the same molecule, the LIVER (1 mg/kg, 9 h, dose level Low) was 8.1 g, the ALP [6] was 1211 IU/L and the AST [6] was 73.4 IU/L. It also gave a CRE [6] of 0.1 mg/dL, a DBIL [6] of 0 mg/dL and a GLC [6] of 180 mg/dL. The K [6] was 4.2 meq/L, the LDH [6] was 136.6 IU/L and the Na [6] was 140.2 meq/L. It also gave an RALB [6] of 3 g/dL, a TBIL [6] of 0.02 mg/dL and a TC [6] of 67.8 mg/dL. It also gave a TG [6] of 52.6 mg/dL, a TP [6] of 5.3 g/dL and a gamma-GTP [6] of 1.2 IU/L. The TERMINAL_BW (1 mg/kg, 24 h, dose level Low) was 218.4 g, the Bas [7] was 0% and the Eos [7] was 0.8%. For the same molecule, the Fbg [7] was 307.6 mg/dL, the Ht [7] was 37.2% and the Lym [7] was 83.2%. The MCH [7] was 21.6 pg, the MCHC [7] was 35.8% and the MCV [7] was 60.4 fL. The Mono [7] was 3.4%, the PT [7] was 16.7 s and the Plat [7] was 116 x10_4/uL. The RBC [7] was 617.4 x10_4/ul, the Ret [7] was 6.2% and the KIDNEY_L (1 mg/kg, 24 h, dose level Low) was 0.9 g. The KIDNEY_R (1 mg/kg, 24 h, dose level Low) was 1 g, the KIDNEY_TOTAL (1 mg/kg, 24 h, dose level Low) was 1.9 g and the ALP [8] was 1436.4 IU/L. It also gave an AST [8] of 68.2 IU/L, a CRE [8] of 0.2 mg/dL and a DBIL [8] of 0.002 mg/dL. It also gave a GLC [8] of 191.8 mg/dL, a K [8] of 4.3 meq/L and a Na [8] of 142.4 meq/L. It also gave an RALB [8] of 3 g/dL, a TBIL [8] of 0.024 mg/dL and a TC [8] of 75.2 mg/dL. It also gave a TG [8] of 102.4 mg/dL, a TP [8] of 5.6 g/dL and a gamma-GTP [8] of 1.4 IU/L. For the same molecule, the TERMINAL_BW (3 mg/kg, 3 h, dose level Middle) was 212.4 g and the Bas (3 mg/kg, 3 h, tissue Blood, dose level Middle) was 0%.
